According to publication PMC5920098, “Identification of the allosteric P2X7 receptor antagonist [^11C]SMW139 as a PET tracer of microglial activation” (Scientific Reports, 2018):
Where “and” joins values, the source holds several entries; their conditions need not be identical. Identical values can stand only once. Entries after “also recorded” stand apart in the source; their conditions may differ.

Assays:
[1] = Ex vivo metabolite analysis (plasma and brain) in healthy male Wistar rats; design: species or system rat
Description: (§1) In vivo stability of analogues [^11C]1–3 and [^11C]SMW139 was assessed in healthy male Wistar rats at 15 and 45 minutes after injection of 30–40 MBq of formulated tracer. […] Results obtained in plasma correspond with previously reported stability results in rat liver microsomes. A higher level of intact tracer was found in brain (Table 3) for [^11C]1 and [^11C]SMW139 compared with [^11C]2 and [^11C]3. Despite optimisation of the extraction method, the percentage of total radioactivity that could be extracted from brain homogenates was not optimal for all four compounds (59 ± 6% for [^11C]1; 58 ± 7% for [^11C]2; 61 ± 4% for [^11C]3; 62 ± 3% for [^11C]SMW139). Therefore, based on its highest stability in plasma in vivo, [^11C]SMW139 was selected for further in vivo studies. As imaging studies were performed in female rats, plasma metabolites were also determined in two female rats, and no differences were found between plasma metabolism of [^11C]SMW139 in male and female rats (Table S1; Supplementary Information).
For each of the carbon-11 labelled benzamide analogues [^11C]1–3 and [^11C]SMW139, a biodistribution study and metabolite analysis in healthy male Wistar rats was performed, as described in detail in the Supplementary Information. Briefly, tracer distribution in blood, brain, and peripheral organs was measured at 5, 15, 30 and 45 min after intravenous injection of 13–23 MBq of formulated tracer. Metabolite analysis was performed at 15 and 45 min after intravenous injection of 30–40 MBq of formulated tracer in both blood plasma and brain. […]
(§2) Ex vivo metabolite analysis
(§3) Healthy male and female Wistar rats (254-440 g) were injected with 30-40 MBq (at start of experiment) of formulated tracer in the tail vein under isoflurane anaesthesia. Rats were sacrificed at 15 and 45 min (n = 3 per time point). Blood samples were obtained and the brain was excised. Blood samples were collected in heparin tubes (BD Vacutainer NH 119 I.U., 7 mL, BD Vacutainer Systems, Plymouth, UK) and centrifuged at 4,000 rpm for 5 min at 4 °C (Hettich Universal 32, Andreas Hettich GmbH & Co.KG, Tuttlingen, Germany). Plasma supernatant was separated from blood cells and loaded onto a tC18 Sep-Pak (Waters, Milford, MA, USA), followed by washing with 3 mL of water to obtain the polar fraction. The non-polar fraction was then eluted with 2 mL of MeOH and 1 mL of water and further analysed by HPLC. The brain was put in a falcon tube containing 4 mL MeCN/H2O (50:50 v/v) and homogenised with a disperser (IKA T18 B Ultra-Turrax, IKA®-Werke GmbH & Co.KG, Staufen, Germany) before centrifugation (5 min, 4,000 rpm, 20 °C, Hettich Universal 32). Supernatant was separated from brain precipitate and analysed by HPLC. Analytical HPLC was performed with Dionex (Sunnyvale, CA, USA) UltiMate 3000 HPLC equipment with Chromeleon software (version 6.8) on a Gemini C18 5-µm (10 x 250 mm) column (Phenomenex, Torrance, CA, USA) with gradient and a mixture of MeCN (A) and 0.1% DIPA in water (B) as eluent according to the following scheme: 0 min, […]
(§4) 0.25 mL·min-1. All separate fractions were counted for radioactivity in a Wizard Gammacounter 1470 or 2480 (Wallac/PerkinElmer, Waltham, MA, USA).

[2] = Plasma metabolite analysis in female rAAV-hP2X7R rats; type: in vivo; conditions: female rat
Description: as §1, with “Information). […]” for “Information).”
as §2, §3, §4
Table S1: Metabolic profile of [11C]SMW139 in female rAAV-hP2X7R rats. […]

P2X7R = target: T1, P2X7R (Homo sapiens, UniProt Q99572); assay: In vitro autoradiography on post mortem human brain tissue (AD patients and controls); type: binding; conditions: tracer 28 nM
T1 construct: Snap frozen human post-mortem; tissue The Netherlands Brain Bank; host or cells: post mortem human temporal cortex (AD patients and non-neurological controls)
T1 sequence (Q99572 1-595): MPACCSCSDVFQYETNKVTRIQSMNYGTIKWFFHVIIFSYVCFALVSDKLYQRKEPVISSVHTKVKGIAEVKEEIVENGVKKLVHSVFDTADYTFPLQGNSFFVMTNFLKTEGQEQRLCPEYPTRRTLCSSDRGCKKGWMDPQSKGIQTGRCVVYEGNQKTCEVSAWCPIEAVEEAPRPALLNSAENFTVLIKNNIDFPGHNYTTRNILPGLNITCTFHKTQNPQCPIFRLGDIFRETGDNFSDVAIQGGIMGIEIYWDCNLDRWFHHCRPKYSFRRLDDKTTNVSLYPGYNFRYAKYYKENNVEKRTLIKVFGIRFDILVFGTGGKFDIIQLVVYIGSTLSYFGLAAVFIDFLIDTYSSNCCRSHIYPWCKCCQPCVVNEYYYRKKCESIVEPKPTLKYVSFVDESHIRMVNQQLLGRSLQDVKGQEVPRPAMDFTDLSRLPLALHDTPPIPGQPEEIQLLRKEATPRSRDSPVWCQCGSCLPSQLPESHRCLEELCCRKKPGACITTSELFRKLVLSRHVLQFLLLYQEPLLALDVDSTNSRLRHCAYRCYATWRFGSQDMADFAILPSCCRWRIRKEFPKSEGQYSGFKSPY

mouse P2X7R = tested on: mouse P2X7R; design: method as in PMID 28841278; conditions: cited from earlier work
[3] = target: T2, human P2X7 receptor (hP2X7R) (Homo sapiens, UniProt Q99572); assay: In vitro autoradiography on rat brain cryosections locally overexpressing hP2X7R; conditions: tracer 28 nM
T2 sequence (Q99572 1-595): T1 sequence (Q99572 1-595)
Description: Snap frozen brain tissue was cut on a cryostat into 20 μm sections.
Stereotactic injection of viral vector
Female Wistar rats (n=7) were anaesthetised by intraperitoneal (i.p.)
injection of ketamine (75 mg·kg-1); Ketalar, Pfizer, Brussels, Belgium) and medetomidin (1 mg·kg-1;
Domitor, Pfizer) and positioned in a stereotactic head frame (Stoelting, Wood Dale, IL, USA). Right and
left striatum were injected with 4 µL of the hP2X7R vector (rAAV_3flag-hP2X7R) and of the control
vector (rAAV_3flag-eGFP), respectively, at a rate of 0.25 µL·min-1, using a 30-gauge needle connected
to a 10 µL Hamilton syringe. Coordinates used for striatal injection of the hP2X7R vector were:
anteroposterior 0 cm, lateral -0.28 cm and dorsoventral -0.64 cm relative to bregma. Coordinates
used for striatal injection of the eGFP vector were: anteroposterior 0 cm, lateral +0.28 cm and
dorsoventral -0.64 cm relative to bregma. After injection, the needle was kept in place for another 5
minutes before removing it slowly. To reverse the anaesthesia, the rats were injected intraperitoneally
with 0.5 mg·kg-1 atipamezol (Antisedan, Orion Pharma, Newburry, Berkshire, UK).
Rats were sacrificed for in
vitro autoradiography at 3 (n=2) and 12 (n=5) weeks after vector injection.
Snap frozen brains of female Wistar rats (rAAV_3flag-hP2X7R in right striatum; rAAV_3flag-eGFP in left
striatum; sacrificed 3 weeks (n = 2) or 12 weeks (n = 5) after vector injection) were cut on a Leica
CM3050 S cryostat (Leica Biosystems, Nussloch, Germany) at -19 °C in transversal sections of 20 µm,
thaw-mounted on SuperFrostTM Plus (Thermo Fisher Scientific, Waltham, MA, USA) object glasses,
dried overnight on silica at 4 °C and then stored at -20 °C until use.
Upon use, sections were thawed to room temperature for an hour
before washing the sections in 5 mM Tris-HCl buffer (pH 7.4) at room temperature (3x 5 min). Sections
were dried in a cold stream of air before incubation (30 min) with 5 mM Tris-HCl buffer (pH 7.4)
concentration. After incubation, sections were washed (3x 1.5 min) in ice-cold 5 mM Tris-HCl buffer
(pH 7.4) followed by a dip in ice-cold demineralised water. Sections were dried in a stream of air and
then exposed to a storage phosphor screen (BAS-IP SR 2040 E, GE Healthcare Europe GmbH,
Eindhoven, the Netherlands) and the screen was read out on a Typhoon FLA 7000 phosphor imager
(GE Healthcare Europe GmbH, Eindhoven, the Netherlands).
quantified using ImageQuantTL Analysis Toolbox (version 8.1, GE Healthcare). In case of the rat brain
sections, regions of interest (ROIs) were defined around the striatum. […] Results are expressed as mean intensity, or as
percentage of tracer binding, relative to total tracer binding in the contralateral striatum. Experiments
with rAAV_3flag-hP2X7R injected rat brains were performed as a duplicate of quadruplicates.
Statistical analysis of quantitative autoradiography data (unpaired t test, two-tailed) was performed

## [11CH3]Oc1ccc(Cl)c(C(=O)NCC23CC4(F)CC(F)(CC(F)(C4)C2)C3)c1 [[^11C]SMW139]
[1]; rat brain, 15 min p.i.
  Intact tracer (%): 79 ± 1%
[1]; rat brain, 45 min p.i.
  Intact tracer (%): 66 ± 2%
[1]; rat plasma, 15 min p.i., male Wistar rats
  Intact tracer (%): 60 ± 1%
[1]; rat plasma, 45 min p.i., male Wistar rats
  Intact tracer (%): 42% and 42 ± 2%
[2]; Rat 1, 15 min
  Intact tracer (%): 78%
[2]; Rat 1, 45 min
  Intact tracer (%): 50%
[2]; Rat 2, 15 min
  Intact tracer (%): 63%
[2]; Rat 2, 45 min
  Intact tracer (%): 32%
P2X7R; AD patients and controls
  Tracer binding in white matter vs grey matter: Higher tracer binding was observed in white matter compared with grey matter; also recorded: higher in white matter than in grey matter
P2X7R; temporal cortex, grey and white matter
  Tracer binding in AD patients vs non-neurological controls: does not differ significantly; also recorded: did not differ significantly; also recorded: no significant differences
Mouse P2X7R
  Affinity lower for mouse P2X7R compared with hP2X7R: 6 fold
[3]
  Mean intensity of tracer binding in rAAV_3flag-eGFP injected striatum: 69 ± 10 counts
  Mean intensity of tracer binding in rAAV_3flag-hP2X7R injected striatum: 678 ± 55 counts
[3]; n = 2
  Increased binding in rAAV_3flag-hP2X7R injected striatum vs rAAV_3flag-eGFP injected striatum: 10 ± 2 fold and 10 fold
